From article PMC4277619, “Design, Synthesis and Cytotoxicity Evaluationof New 1,2-diaryl-4, 5, 6, 7-Tetrahydro-1H-benzo[d] Imidazolesas Tubulin Inhibitors” (Iranian Journal of Pharmaceutical Research : IJPR, 2015) come the findings set out here.

Series [1] has as its system HEPG2. Put plainly: MTT assay, cytotoxicity against HEPG2 liver carcinoma cells. The format is cell-based, human. The following applies: for IC50: Homo sapiens, HEPG2 cells, 24 h incubation, MTT; for SI HEPG2: selectivity index = IC50 Fibroblast / IC50 HEPG2. As for the experimental part: (§1) Fibroblast, MCF7 (human breast cancer), HEPG2 (human liver carcinoma), A549 (human lung cancer) and T47D (human breast cancer) cell lines were purchased from Pasteur Institute, Tehran, Iran. The cells were grown in RPMI1640 medium at 37 °C under 5% CO2 supplemented with 10% heat inactivated fetal bovine serum (FBS), 100 U/mL penicillin and 100 µg/mL streptomycin. Cell viability was evaluated using MTT method which is based on the reduction of 3-(4,5-dimethylthiazol-2-yl)-2,5-diphenyltetrazolium bromide (MTT) dye to purple formazan crystals by mitochondrial succinate dehydrogenase enzyme in living cells. The cells were seeded into 96-well plates at a concentration of 6000 cells/well and allowed to incubate for 24 h. The medium was then discarded and different concentrations of the test compounds dissolved in complete medium, were added to each well. After further incubation for 24 h at 37 °C, the medium was aspirated and 100 µL MTT (2 mg/mL) was added to the wells and incubated for 3 h at 37 °C. The produced formazan crystals were dissolved in 100 µL of DMSO. Plates were incubated for 20 min at 37 °C and the optical densities were read at 570 nm with a reference wavelength of 630 nm as background using a spectrophotometer plate reader (Infinite® M200, TECAN). Colchicine was used as positive control and DMSO as the solvent of the test compounds and its final concentration was less than 0.2%. IC50 was calculated by calibration curve using Prism software. All the tests were performed in triplicates.
Background: Tetrazolium dyes change colour on reduction, which living cells bring about.

The test system of series [2] is Fibroblast. As to the kind of experiment: MTT assay, cytotoxicity against normal fibroblast cells. The format is cell-based. Conditions: Homo sapiens, 24 h incubation. The method, then: as §1
The test system of series [3] is MCF-7. As to the kind of experiment: MTT assay, cytotoxicity against MCF-7 breast cancer cells. Format: cell-based, human. The following applies: for IC50: Homo sapiens, MCF7, MCF-7 cells, 24 h incubation, MTT; for SI MCF-7: selectivity index = IC50 Fibroblast / IC50 MCF-7. The method, then:
as §1

Series [4] relates to T47D. As to the kind of experiment: MTT assay, cytotoxicity against T47D breast cancer cells. Format: cell-based, human. The following applies: for IC50: Homo sapiens, T47D cells, 24 h incubation, MTT; for SI T47D: selectivity index = IC50 Fibroblast / IC50 T47D. The method, then: as §1
The subject of series [5] is A549. Put plainly: MTT assay, cytotoxicity against A549 lung cancer cells. Format: cell-based, human. The following applies: for IC50: Homo sapiens, A549 cells, 24 h incubation, MTT; for SI A549: selectivity index = IC50 Fibroblast / IC50 A549. The method, then: as §1

What is called melting point is the temperature of the solid-liquid transition. One may read the IC50 as the concentration that inhibits the measured activity by half. A higher IC50 goes with lower potency. Compound `COc1cc(-c2nc3c(n2-c2ccc(O)cc2)CCCC3)cc(OC)c1OC` [Compound 7c, 4-[2-(3,4,5-Trimethoxyphenyl)-4,5,6,7-tetrahydro-1H-benzoimidazole-1-yl]-phenol] came in with a melting point of 259 to 260 °C. In addition, in series [1], the IC50 was found to be 19.6 µM and the “SI HEPG2” value was found to be 4.11. This compound also had an IC50 in series [2] of 80.8 µM. In series [3], this compound gave an IC50 of more than 100 µM. In addition, in series [4], half-maximal inhibition (IC50) required 41.2 µM and the “SI T47D” value came out at 2. The same compound came in with an IC50 in series [5] of more than 100 µM.
In the case of `COc1cc(-c2nc3c(n2-c2cccc(Cl)c2)CCCC3)cc(OC)c1OC` [Compound 7f, 1-(3-Chlorophenyl)-2-(3,4,5-trimethoxyphenyl)-4,5,6,7-tetrahydro-1H-benzoimidazole], the half-maximal inhibitory concentration (IC50) was 43.8 µM in series [1]; 87.3 µM in series [2]; 77.9 µM in series [3]; 58.6 µM in series [4]; more than 100 µM in series [5]. Besides, the “SI HEPG2” value in series [1] stood at 2. The “SI MCF-7” value in series [3] came to 1.12. Further, in series [4], the “SI T47D” value was determined as 1.5.
The compound `COc1cc(-c2nc3c(n2-c2ccc(Cl)cc2)CCCC3)cc(OC)c1OC` [Compound 7e, 1-(4-Chlorophenyl)-2-(3,4,5-trimethoxyphenyl)-4,5,6,7-tetrahydro-1H-benzoimidazole] returned a melting point of 157 to 158 °C. In series [1], it took 15.6 µM to reach half-maximal inhibition (IC50) and the “SI HEPG2” value stood at 3.46. The same compound yielded a half-maximal inhibitory concentration (IC50) in series [2] of 54 µM. For the same compound, in series [3], half-maximal inhibition (IC50) was put at 36.4 µM and the “SI MCF-7” value came out at 1.48. In series [4], the IC50 was 34.5 µM and the “SI T47D” value was 1.6. In addition, in series [5], the IC50 is 87 µM and the “SI A549” value was found to be 0.62.
For `COc1cccc(-n2c(-c3cc(OC)c(OC)c(OC)c3)nc3c2CCCC3)c1` [Compound 7b, 1-(3-Methoxyphenyl)-2-(3,4,5-trimethoxyphenyl)-4,5,6,7-tetrahydro-1H-benzoimidazole], the half-inhibitory concentration (IC50) was more than 100 µM in series [1]; more than 100 µM in series [2]; more than 100 µM in series [3]; more than 100 µM in series [4]; 30.4 µM in series [5].
Turning to `COc1ccc(-n2c(-c3cc(OC)c(OC)c(OC)c3)nc3c2CCCC3)cc1` [Compound 7a, 1-(4-Methoxyphenyl)-2-(3,4,5-trimethoxyphenyl)-4,5,6,7-tetrahydro-1H-benzoimidazole], the melting point is 110 to 111 °C. Besides, in series [1], the IC50 was found to be 22.5 µM and the “SI HEPG2” value is 1.26. For the same compound, half-maximal inhibition in series [2] (IC50) required 28.5 µM. In series [3], it took 54.8 µM to reach half-maximal inhibition (IC50) and the “SI MCF-7” value came to 0.52. Besides, in series [4], half-maximal inhibition (IC50) required 41.1 µM and the “SI T47D” value is on record as 0.69. Also, in series [5], the midpoint of inhibition, the IC50, lay at 83.6 µM and the “SI A549” value came out at 0.34.
Regarding `COc1cc(-c2nc3c(n2-c2ccc(F)cc2)CCCC3)cc(OC)c1OC` [Compound 7d, 1-(4-Fluorophenyl)-2-(3,4,5-trimethoxyphenyl)-4,5,6,7-tetrahydro-1H-benzoimidazole], the melting point was in the range of 152 to 154 °C. In series [1], the IC50 was found to be 19.4 µM and the “SI HEPG2” value is reported as 3.06. In series [2], this compound yielded an IC50 of 59.5 µM. In addition, in series [3], the IC50 worked out at 62.3 µM and the “SI MCF-7” value is reported as 0.95. In addition, in series [4], the midpoint of inhibition, the IC50, lay at 30 µM and the “SI T47D” value was 2. Also, in series [5], the IC50 is 86.5 µM and the “SI A549” value was determined as 0.68.
